Data set [1] in a line: Turbidity of crude library peptides (absorbance at 600 nm). The format is physicochemical. The settings on record: Physical stability of peptides. Summed up: (§1)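 Fibril formation is scored as average ThT fluorescence from duplicate samples monitored for 72 h at 40° C with shaking stress. Turbidity is the absorbance at 600 nm taken before heating. Peptide concentration was 267 μM at pH 4.0 or pH 7.0.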

The target of another data set is SCTR (Homo sapiens, UniProt P47872). Description: hSCTR potency, cAMP accumulation in CHO-K1 cells stably overexpressing hSCTR. In kind it is cell-based. Also on record: alternatively Euroscreen ES-712-AF; FAST-0161L; host or cells: CHO-K1. To be noted: cAMP accumulation, CHO-K1 cells overexpressing hSCTR; read-out: hSCTR pEC50 (converted). Summed up: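 In this Gs cAMP assay, stably transfected CHO-K1 hSCTR cells were stimulated at room temperature for 30 min in IBMX-containing buffer. Time-resolved FRET gave the signal. Replicates were increased when the top concentration changed or EC50 values differed 5-fold.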
Chain of SCTR (P47872 23-440): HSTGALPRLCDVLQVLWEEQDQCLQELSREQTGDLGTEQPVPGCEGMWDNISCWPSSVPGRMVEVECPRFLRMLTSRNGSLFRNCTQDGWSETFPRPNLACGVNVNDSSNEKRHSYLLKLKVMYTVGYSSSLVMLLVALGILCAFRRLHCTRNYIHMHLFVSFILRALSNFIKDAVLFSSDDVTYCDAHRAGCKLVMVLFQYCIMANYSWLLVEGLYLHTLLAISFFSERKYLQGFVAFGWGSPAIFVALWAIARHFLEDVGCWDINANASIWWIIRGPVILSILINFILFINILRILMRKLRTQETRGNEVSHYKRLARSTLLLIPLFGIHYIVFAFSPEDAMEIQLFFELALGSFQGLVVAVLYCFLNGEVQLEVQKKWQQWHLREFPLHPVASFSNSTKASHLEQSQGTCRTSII
For orientation: cAMP levels reflect the balance of adenylyl cyclase and phosphodiesterase activity.

For the next data set, the target named is GLP1R (Homo sapiens, UniProt P43220). Description: hGLP1R potency, cAMP accumulation in CHO-K1 cells stably overexpressing hGLP1R. The format is cell-based. The settings on record: for EC50: cAMP accumulation, CHO-K1 cells overexpressing hGLP1R, read-out: hGLP1R pEC50 (converted); for SCTR EC50/GLP1R EC50 ratio: selectivity for hGLP1R over hSCTR, cAMP accumulation in CHO-K1 cells. Further details: host or cells: CHO-K1. Summed up:
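In the presence of 0.5 mM IBMX, compounds stimulated the cells for 30 minutes at room temperature. Accumulated cAMP was then detected by TR-FRET, with EC50 values fitted by variable-slope nonlinear regression.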

The nature of data set [2]: Fibril formation of crude library peptides (Thioflavin T). In kind it is physicochemical. Also on record: key: average ThT fluorescence emission at 480 nm (ex 450 nm), raw units. To be noted: Physical stability of peptides. In a few lines: as §1

Numbered stars: 1 amine (or outer) side, 2 acyl side, 3 side chain; on linkers, the order of the positions; unused ones are H or OH. Square brackets hold non-standard residues; d marks the D form. Side chains are listed from the residue outwards. Peptide text beside a SMILES is read from it. * marks the point of attachment. C20 diacid = O=C(O)CCCCCCCCCCCCCCCCCCC(=O)*; γGlu = O=C(O)[C@H](CCC(=O)[*:2])N[*:1]; AEEA = NCCOCCOCC(=O)O; Aib = CC(C)(N)C(=O)O

Chain of GLP1R (P43220 24-463): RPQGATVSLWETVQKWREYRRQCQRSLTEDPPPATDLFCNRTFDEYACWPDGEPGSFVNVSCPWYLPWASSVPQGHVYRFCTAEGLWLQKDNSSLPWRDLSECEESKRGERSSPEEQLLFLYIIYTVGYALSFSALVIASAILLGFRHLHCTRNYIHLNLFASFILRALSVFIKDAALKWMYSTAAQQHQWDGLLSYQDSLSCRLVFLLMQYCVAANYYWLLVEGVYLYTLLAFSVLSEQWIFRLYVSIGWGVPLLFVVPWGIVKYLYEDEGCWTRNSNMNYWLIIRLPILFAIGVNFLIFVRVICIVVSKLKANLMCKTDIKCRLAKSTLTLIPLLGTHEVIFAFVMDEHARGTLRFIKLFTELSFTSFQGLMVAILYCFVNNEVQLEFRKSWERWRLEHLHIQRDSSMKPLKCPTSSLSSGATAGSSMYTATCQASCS

`CC[C@H](C)[C@H](NC(=O)[C@H](CC(=O)O)NC(=O)[C@H](CO)NC(=O)[C@@H](NC(=O)[C@H](Cc1ccccc1)NC(=O)[C@@H](NC(=O)CNC(=O)[C@H](CCC(=O)O)NC(=O)C(C)(C)NC(=O)[C@@H](N)Cc1c[nH]cn1)[C@@H](C)O)[C@@H](C)O)C(=O)N[C@@H](CO)C(=O)NCC(=O)N[C@@H](CC(C)C)C(=O)N[C@@H](CC(C)C)C(=O)N[C@@H](CCC(=O)O)C(=O)NCC(=O)N[C@@H](C)C(=O)N[C@@H](C)C(=O)N[C@@H](CC(C)C)C(=O)N[C@@H](CCC(N)=O)C(=O)N[C@@H](CCCNC(=N)N)C(=O)N[C@@H](Cc1ccccc1)C(=O)N[C@H](C(=O)N[C@@H](CCC(N)=O)C(=O)N[C@@H](Cc1c[nH]c2ccccc12)C(=O)N[C@@H](CC(C)C)C(=O)N[C@H](C(N)=O)C(C)C)[C@@H](C)CC` [compound 120] (H-H[Aib]EGTFTSDISGLLEGAALQRFIQWLV-NH2): in data set [1], the “Turbidity (pH 7)” value came to 0.23. Besides, the EC50 at SCTR was 200 nM. On GLP1R, the EC50 is 0.0501 nM and the “SCTR EC50/GLP1R EC50 ratio” value was found to be 3717. This compound returned a Fibril formation in data set [2] of 4449.
With `CC(C)C[C@H](NC(=O)[C@H](Cc1ccccc1)NC(=O)[C@H](CCCNC(=N)N)NC(=O)[C@H](CCC(N)=O)NC(=O)[C@H](CC(C)C)NC(=O)C(C)(C)NC(=O)[C@H](C)NC(=O)[C@H](CCC(=O)O)NC(=O)[C@H](CCC(=O)O)NC(=O)[C@H](CCCCNC(=O)COCCOCCNC(=O)COCCOCCNC(=O)CC[C@H](NC(=O)CCCCCCCCCCCCCCCCCCC(=O)O)C(=O)O)NC(=O)[C@H](CC(C)C)NC(=O)[C@H](Cc1ccc(O)cc1)NC(=O)[C@H](CO)NC(=O)[C@@H]1CCCN1C(=O)[C@H](CC(=O)O)NC(=O)[C@H](CO)NC(=O)[C@@H](NC(=O)[C@H](Cc1ccccc1)NC(=O)[C@@H](NC(=O)CNC(=O)[C@H](CCC(=O)O)NC(=O)C(C)(C)NC(=O)[C@@H](N)Cc1c[nH]cn1)[C@@H](C)O)[C@@H](C)O)C(=O)N[C@@H](CCC(=O)O)C(=O)N[C@@H](Cc1c[nH]cn1)C(=O)N[C@@H](CC(C)C)C(=O)N[C@H](C(N)=O)C(C)C` [compound 121] (H-H[Aib]EGTFTSDPSYLK([AEEA-AEEA-γGlu-C20 diacid])EEA[Aib]LQRFLEHLV-NH2), the “Turbidity (pH 7)” value in data set [1] is 0.08. Moreover, the EC50 at SCTR is 39800 nM. Also, on GLP1R, the EC50 is 2.51 nM and the “SCTR EC50/GLP1R EC50 ratio” value worked out at 17452. This compound also returned a Fibril formation in data set [2] of 24767.
Turning to `CC[C@H](C)[C@H](NC(=O)[C@H](Cc1ccccc1)NC(=O)[C@H](CCCNC(=N)N)NC(=O)[C@H](CCC(N)=O)NC(=O)[C@H](CC(C)C)NC(=O)[C@H](C)NC(=O)[C@H](C)NC(=O)CNC(=O)[C@H](CCC(=O)O)NC(=O)[C@H](CC(C)C)NC(=O)[C@H](CC(C)C)NC(=O)[C@H](CCC(=O)O)NC(=O)[C@H](CO)NC(=O)[C@@H]1CCCN1C(=O)[C@H](CC(=O)O)NC(=O)[C@H](CO)NC(=O)[C@@H](NC(=O)[C@H](Cc1ccccc1)NC(=O)[C@@H](NC(=O)CNC(=O)[C@H](CCC(=O)O)NC(=O)C(C)(C)NC(=O)[C@@H](N)Cc1c[nH]cn1)[C@@H](C)O)[C@@H](C)O)C(=O)N[C@@H](CCC(N)=O)C(=O)N[C@@H](Cc1c[nH]c2ccccc12)C(=O)N[C@@H](CC(C)C)C(=O)N[C@H](C(N)=O)C(C)C` [compound 122] (H-H[Aib]EGTFTSDPSELLEGAALQRFIQWLV-NH2), the “Turbidity (pH 7)” value in data set [1] is recorded as 0.08. Also, the EC50 at SCTR is 5010 nM. Besides, on GLP1R, the EC50 was 6.31 nM and the “SCTR EC50/GLP1R EC50 ratio” value stood at 804. In data set [2], this compound came in with a Fibril formation of 3560.
Regarding `CC[C@H](C)[C@H](NC(=O)[C@H](Cc1ccccc1)NC(=O)[C@H](CCCNC(=N)N)NC(=O)[C@H](CCC(N)=O)NC(=O)[C@H](CC(C)C)NC(=O)[C@H](C)NC(=O)[C@H](C)NC(=O)CNC(=O)[C@H](CCC(=O)O)NC(=O)[C@H](CC(C)C)NC(=O)[C@H](CC(C)C)NC(=O)CNC(=O)[C@H](CO)NC(=O)[C@@H]1CCCN1C(=O)[C@H](CC(=O)O)NC(=O)[C@H](CO)NC(=O)[C@@H](NC(=O)[C@H](Cc1ccccc1)NC(=O)[C@@H](NC(=O)CNC(=O)[C@H](CCC(=O)O)NC(=O)C(C)(C)NC(=O)[C@@H](N)Cc1c[nH]cn1)[C@@H](C)O)[C@@H](C)O)C(=O)N[C@@H](CCC(N)=O)C(=O)N[C@@H](Cc1c[nH]c2ccccc12)C(=O)N[C@@H](CC(C)C)C(=O)N[C@H](C(N)=O)C(C)C` [compound 123] (H-H[Aib]EGTFTSDPSGLLEGAALQRFIQWLV-NH2), the “Turbidity (pH 7)” value in data set [1] came to 0.11. Besides, the EC50 on SCTR is 6310 nM. At GLP1R, the EC50 was 10 nM and the “SCTR EC50/GLP1R EC50 ratio” value was 671. In data set [2], the Fibril formation came out at 3764.
As to `CC[C@H](C)[C@H](NC(=O)[C@H](Cc1ccccc1)NC(=O)[C@H](CCCNC(=N)N)NC(=O)[C@H](CCC(N)=O)NC(=O)[C@H](CC(C)C)NC(=O)[C@H](C)NC(=O)[C@H](C)NC(=O)CNC(=O)[C@H](CCC(=O)O)NC(=O)[C@H](CC(C)C)NC(=O)[C@H](CC(C)C)NC(=O)[C@H](CCCNC(=N)N)NC(=O)[C@H](CO)NC(=O)[C@@H]1CCCN1C(=O)[C@H](CC(=O)O)NC(=O)[C@H](CO)NC(=O)[C@@H](NC(=O)[C@H](Cc1ccccc1)NC(=O)[C@@H](NC(=O)CNC(=O)[C@H](CCC(=O)O)NC(=O)C(C)(C)NC(=O)[C@@H](N)Cc1c[nH]cn1)[C@@H](C)O)[C@@H](C)O)C(=O)N[C@@H](CCC(N)=O)C(=O)N[C@@H](Cc1c[nH]c2ccccc12)C(=O)N[C@@H](CC(C)C)C(=O)N[C@H](C(N)=O)C(C)C` [compound 124] (H-H[Aib]EGTFTSDPSRLLEGAALQRFIQWLV-NH2), in data set [1], the “Turbidity (pH 7)” value is 0.12. Moreover, the EC50 on SCTR was 5010 nM. Moreover, on GLP1R, the EC50 was 2.51 nM and the “SCTR EC50/GLP1R EC50 ratio” value is on record as 2086. The Fibril formation in data set [2] is 1370.
Regarding `CC[C@H](C)[C@H](NC(=O)[C@H](Cc1ccccc1)NC(=O)[C@H](CCCNC(=N)N)NC(=O)[C@H](CCC(N)=O)NC(=O)[C@H](CC(C)C)NC(=O)[C@H](C)NC(=O)[C@H](C)NC(=O)CNC(=O)[C@H](CCC(=O)O)NC(=O)[C@H](CC(C)C)NC(=O)[C@H](CC(C)C)NC(=O)C(C)(C)NC(=O)[C@H](CO)NC(=O)[C@@H]1CCCN1C(=O)[C@H](CC(=O)O)NC(=O)[C@H](CO)NC(=O)[C@@H](NC(=O)[C@H](Cc1ccccc1)NC(=O)[C@@H](NC(=O)CNC(=O)[C@H](CCC(=O)O)NC(=O)C(C)(C)NC(=O)[C@@H](N)Cc1c[nH]cn1)[C@@H](C)O)[C@@H](C)O)C(=O)N[C@@H](CCC(N)=O)C(=O)N[C@@H](Cc1c[nH]c2ccccc12)C(=O)N[C@@H](CC(C)C)C(=O)N[C@H](C(N)=O)C(C)C` [compound 125] (H-H[Aib]EGTFTSDPS[Aib]LLEGAALQRFIQWLV-NH2), the “Turbidity (pH 7)” value in data set [1] is on record as 0.11. Also, the EC50 was 10000 nM on SCTR and 3.98 nM at GLP1R. The “SCTR EC50/GLP1R EC50 ratio” value at GLP1R was determined as 2342. Moreover, the Fibril formation in data set [2] came out at 4675.
On to `CC[C@H](C)[C@H](NC(=O)[C@H](Cc1ccccc1)NC(=O)[C@H](CCCNC(=N)N)NC(=O)[C@H](CCC(N)=O)NC(=O)[C@H](CC(C)C)NC(=O)[C@H](C)NC(=O)[C@H](C)NC(=O)CNC(=O)[C@H](CCC(=O)O)NC(=O)[C@H](CC(C)C)NC(=O)[C@H](CC(C)C)NC(=O)[C@H](Cc1ccccc1)NC(=O)[C@H](CO)NC(=O)[C@@H]1CCCN1C(=O)[C@H](CC(=O)O)NC(=O)[C@H](CO)NC(=O)[C@@H](NC(=O)[C@H](Cc1ccccc1)NC(=O)[C@@H](NC(=O)CNC(=O)[C@H](CCC(=O)O)NC(=O)C(C)(C)NC(=O)[C@@H](N)Cc1c[nH]cn1)[C@@H](C)O)[C@@H](C)O)C(=O)N[C@@H](CCC(N)=O)C(=O)N[C@@H](Cc1c[nH]c2ccccc12)C(=O)N[C@@H](CC(C)C)C(=O)N[C@H](C(N)=O)C(C)C` [compound 126] (H-H[Aib]EGTFTSDPSFLLEGAALQRFIQWLV-NH2), for which the “Turbidity (pH 7)” value in data set [1] is listed as 0.26. Further, at SCTR, the EC50 is 2000 nM. For the same compound, on GLP1R, the EC50 was 7.94 nM and the “SCTR EC50/GLP1R EC50 ratio” value came out at 253. This compound also returned a Fibril formation in data set [2] of 41799.
With `CC[C@H](C)[C@H](NC(=O)[C@H](Cc1ccccc1)NC(=O)[C@H](CCCNC(=N)N)NC(=O)[C@H](CCC(N)=O)NC(=O)[C@H](CC(C)C)NC(=O)[C@H](C)NC(=O)[C@H](C)NC(=O)CNC(=O)[C@H](CCC(=O)O)NC(=O)[C@H](CC(C)C)NC(=O)[C@H](CC(C)C)NC(=O)[C@H](Cc1c[nH]c2ccccc12)NC(=O)[C@H](CO)NC(=O)[C@@H]1CCCN1C(=O)[C@H](CC(=O)O)NC(=O)[C@H](CO)NC(=O)[C@@H](NC(=O)[C@H](Cc1ccccc1)NC(=O)[C@@H](NC(=O)CNC(=O)[C@H](CCC(=O)O)NC(=O)C(C)(C)NC(=O)[C@@H](N)Cc1c[nH]cn1)[C@@H](C)O)[C@@H](C)O)C(=O)N[C@@H](CCC(N)=O)C(=O)N[C@@H](Cc1c[nH]c2ccccc12)C(=O)N[C@@H](CC(C)C)C(=O)N[C@H](C(N)=O)C(C)C` [compound 127] (H-H[Aib]EGTFTSDPSWLLEGAALQRFIQWLV-NH2), in data set [1], the “Turbidity (pH 7)” value is 0.19. Besides, the EC50 at SCTR was 3980 nM. Besides, at GLP1R, the EC50 is 7.94 nM and the “SCTR EC50/GLP1R EC50 ratio” value stood at 464. In data set [2], this compound yielded a Fibril formation of 11084.

The values are drawn from US20260201008A1, “SECRETIN-DERIVED GLP1R SELECTIVE AGONISTS” (GUBRA A/S, priority 2023, published 2026).
